Results on 16 compounds are retold here after US20230158025A1 (UNIVERSITY OF UTAH RESEARCH FOUNDATION, priority 2020, published 2023).

The target of series [1] is recombinant human GALK1 (Homo sapiens, UniProt P51570). The experiment in a line: hGALK1 biochemical activity assay (Kinase-Glo Plus, ATP depletion). The note with it: recombinant human GALK1, Kinase-Glo Plus ATP depletion; bracketed figure in the cell, e.g. (−1.2), is not defined in the text shown; read-out: hGALK. The essentials:
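Recombinant human or mouse GALK1 (5 nM, with 100 μM galactose, in the added enzyme solution) was run with ATP (35 μM in the substrate solution) in HEPES pH 8.0 buffer. Compounds were tested at 11 1/3-step concentrations from 57.4 μM to 0.97 nM. After 1 h at room temperature, remaining ATP was read by Kinase-Glo Plus luminescence.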

Series [2] can be described thus: PAMPA permeability. The note with it: PAMPA.
Series [3] is described as follows: rat microsomal stability (RLM). The note with it: microsomal stability half-life, minutes.
Series [4] can be described thus: aqueous kinetic solubility. The following applies: aqueous kinetic solubility.
The target of series [5] is recombinant mouse GALK1 (Mus musculus, UniProt Q9R0N0). Nature of the series: mGALK1 biochemical activity assay (Kinase-Glo Plus, ATP depletion). The following applies: recombinant mouse GALK1, Kinase-Glo Plus ATP depletion; bracketed figure in the cell, e.g. (−1.2), is not defined in the text shown; read-out: mGALK. The essentials:
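Recombinant GALK1 (5 nM) with 100 μM galactose; GALK1 turnover read as ATP depletion by Kinase-Glo Plus luminescence. Reaction ran 1 h at room temperature before detection reagent was added.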

The target of series [6] is T1, hGALK1m (Homo sapiens, UniProt P51570, E253A/K252A).
T1 construct: made in house; host or cells: E. coli HMS174
T1 sequence (P51570 whole entry K252A/E253A): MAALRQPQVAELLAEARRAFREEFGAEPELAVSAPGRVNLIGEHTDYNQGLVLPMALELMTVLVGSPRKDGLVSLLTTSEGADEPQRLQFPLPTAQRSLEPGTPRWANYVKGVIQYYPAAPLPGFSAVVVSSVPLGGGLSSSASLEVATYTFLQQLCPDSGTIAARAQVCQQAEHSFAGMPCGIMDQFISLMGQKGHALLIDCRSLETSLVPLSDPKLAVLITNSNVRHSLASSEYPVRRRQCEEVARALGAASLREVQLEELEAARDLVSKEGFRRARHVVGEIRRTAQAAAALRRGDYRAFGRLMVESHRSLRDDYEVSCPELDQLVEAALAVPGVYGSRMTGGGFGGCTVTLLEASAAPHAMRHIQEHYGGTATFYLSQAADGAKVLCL
Nature of the series: in vitro hGALK1 activity assay of the structure-based optimisation (Example 12, Tables 17-20). Format: biochemical. As for the experimental part:
In vitro hGALK1 activity assays were performed as previously described. Liu et al., Bioorg. Med. Chem. Lett. 25(3): 721-727 (2015), which is incorporated by reference herein for the specific teachings thereof. The biochemical assay was performed by coupling the activity of recombinant human or mouse GALK1 to the Kinase-Glo Plus luminescent ATP detection kit, using ATP depletion as a measure of GALK1 turnover. Specifically, three μL/well of ATP substrate solution (35 μM ATP) in assay buffer (20 mM HEPES pH 8.0, 5 mM MgCl2, 60 mM NaCl, 1 mM DTT, 0.01% BSA final concentration) was dispensed into 1536-well assay plates (Greiner, white solid-bottom medium-binding plates). Aliquots of compound (23 nL solubilized in DMSO) were transferred to the assay plates using a Kalypsys 1536-well pintool such that 11 concentrations with 1/3 dilutions ranging from 57.4 μM-0.97 nM are tested. One μL/well of GALK-galactose solution (5 nM GALK1, 100 μM galactose) in assay buffer was then added, yielding a final reaction volume of 4 μL/well. Following a 1-hour room temperature incubation, 4 μL of Kinase-Glo Plus detection reagent was added to provide an ATP-dependent luminescent readout (final assay volume: 8 μL/well). Luminescence was detected using a ViewLux plate reader (PerkinElmer) after a 10-minute incubation, using a 1 second exposure time and 2× binning.
The in vitro hGALK1 activity assay was performed as previously described. Liu et al., Bioorg. Med. Chem. Lett. 25(3): 721-727 (2015). For the measurement of cellular Gal-1P reduction, compounds at different concentrations were added to cultured patient fibroblast at 80% confluency. After incubating the compounds for 16 hours, 10 mM galactose was added to the culture. After another 4 hours, cells were washed with cold PBS buffer 3× and harvested for gal-1P measurement, according to the previously published method. Liu et al., Bioorg. Med. Chem. Lett. 25(3): 721-727 (2015).

recombinant mouse GALK1, sequence (Q9R0N0 whole entry): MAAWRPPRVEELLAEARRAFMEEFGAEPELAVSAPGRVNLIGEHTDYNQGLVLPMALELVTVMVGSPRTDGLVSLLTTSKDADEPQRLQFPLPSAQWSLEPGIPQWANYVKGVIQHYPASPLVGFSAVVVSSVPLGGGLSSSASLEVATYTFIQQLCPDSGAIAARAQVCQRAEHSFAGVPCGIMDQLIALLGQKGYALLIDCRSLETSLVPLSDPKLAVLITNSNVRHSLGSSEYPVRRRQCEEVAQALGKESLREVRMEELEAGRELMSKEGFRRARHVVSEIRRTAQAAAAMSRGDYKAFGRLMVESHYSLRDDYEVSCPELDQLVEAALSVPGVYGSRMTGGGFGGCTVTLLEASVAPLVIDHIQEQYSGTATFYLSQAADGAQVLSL
recombinant human GALK1, sequence (P51570 whole entry): as the sequence (P51570 whole entry K252A/E253A) above, with A252K, A253E counted along it

For `CC1=C(C(=O)Nc2nncs2)C(c2n[nH]cc2Br)N=C(Nc2nc3ccccc3o2)N1` (stereo not drawn) [Compound 268, 2-(benzo[d]oxazol-2-ylamino)-4-(4-bromo-1H-pyrazol-3-yl)-6-methyl-N-(1,3,4-thiadiazol-2-yl)-1,4-dihydropyrimidine-5-carboxamide], the IC50 stood at 7.69 µM in series [1] and 19.3 µM in series [5]. Further, the “Perm. (1 × 10^−6 cm/sec)” value in series [2] is on record as 27.4 1 × 10^−6 cm/sec. For the same compound, the “Metab. Stabil. (m)” value in series [3] was over 30 m. In addition, in series [4], the “Sol.” value was determined as 11.4 µg/mL.
On to `COc1ccc(Cl)c(C2N=C(Nc3nc4ccccc4o3)NC(C)=C2C(=O)Nc2nncs2)c1` (stereo not drawn) [Compound 269, 2-(benzo[d]oxazol-2-ylamino)-4-(2-chloro-5-methoxyphenyl)-6-methyl-N-(1,3,4-thiadiazol-2-yl)-1,4-dihydropyrimidine-5-carboxamide], for which the IC50 in series [1] is 13.7 µM; in series [5], 17.2 µM. Moreover, the “Perm. (1 × 10^−6 cm/sec)” value in series [2] is given as 19.8 1 × 10^−6 cm/sec. For the same compound, the “Metab. Stabil. (m)” value in series [3] is listed as over 30 m. Further, the “Sol.” value in series [4] is under 1 µg/mL.
Consider `CC1=C(C(=O)Nc2nncs2)C(c2cc(Cl)ccc2Cl)N=C(Nc2nc3ccccc3o2)N1` (stereo not drawn) [Compound 270, 2-(benzo[d]oxazol-2-ylamino)-4-(2,5-dichlorophenyl)-6-methyl-N-(1,3,4-thiadiazol-2-yl)-1,4-dihydropyrimidine-5-carboxamide], for which the figures for the IC50 in series [1] and in series [5] were 6.11 µM and 10.9 µM, respectively. Also, in series [2], the “Perm. (1 × 10^−6 cm/sec)” value is reported as 2.9 1 × 10^−6 cm/sec. Further, the “Metab. Stabil. (m)” value in series [3] is over 30 m. The “Sol.” value in series [4] is under 1 µg/mL.
On the same counts, the results for `CC1=C(C(=O)Nc2nncs2)C2(CCSCC2)N=C(Nc2nc3ccccc3o2)N1` [Compound 271, 2-(benzo[d]oxazol-2-ylamino)-4-methyl-N-(1,3,4-thiadiazol-2-yl)-9-thia-1,3-diazaspiro[5.5]undeca-1,4-diene-5-carboxamide] are 8.63 µM, 24.3 µM, 417.5 1 × 10^−6 cm/sec, over 30 m and 3.5 µg/mL.
On the same counts, the results for `CCOC(=O)N1C(Nc2nc3ccccc3o2)=NC(c2ccccc2Cl)C(C(=O)Nc2cc(C(=O)O)ccn2)=C1C` (stereo not drawn) [Compound 274, 2-(2-(benzo[d]oxazol-2-ylamino)-4-(2-chlorophenyl)-1-(ethoxycarbonyl)-6-methyl-1,4-dihydropyrimidine-5-carboxamido)isonicotinic acid] are 9.68 µM, 19.3 µM, <1 1 × 10^−6 cm/sec, over 30 m and over 85 µg/mL.
Turning to `CC1=C(C(=O)Nc2cc(C(=O)O)ccn2)C(c2ccccc2Cl)N=C(Nc2nc3ccccc3o2)N1C(=O)c1ccccc1` (stereo not drawn) [Compound 275, 2-(2-(benzo[d]oxazol-2-ylamino)-1-benzoyl-4-(2-chlorophenyl)-6-methyl-1,4-dihydropyrimidine-5-carboxamido)isonicotinic acid], the IC50 in series [1] stood at 3.43 µM; in series [5], 7.69 µM. Besides, the “Perm. (1 × 10^−6 cm/sec)” value in series [2] is given as <1 1 × 10^−6 cm/sec. Further, the “Metab. Stabil. (m)” value in series [3] is given as over 30 m. For the same compound, the “Sol.” value in series [4] amounted to 73.9 µg/mL.
On the same counts, the results for `O=C1CC(C(=O)O)CC2=C1C(c1ccccc1Cl)N=C(Nc1nc3ccccc3o1)N2` (stereo not drawn) [Compound 276, 2-(benzo[d]oxazol-2-ylamino)-4-(2-chlorophenyl)-5-oxo-1,4,5,6,7,8-hexahydroquinazoline-7-carboxylic acid] are 3.85 µM, 6.85 µM, <1 1 × 10^−6 cm/sec, over 30 m and 52.63 µg/mL.
On the same counts, the results for `CNC(=O)C1CC(=O)C2=C(C1)NC(Nc1nc3ccccc3o1)=NC2c1ccccc1Cl` (stereo not drawn) [Compound 278, 2-(benzo[d]oxazol-2-ylamino)-4-(2-chlorophenyl)-N-methyl-5-oxo-1,4,5,6,7,8-hexahydroquinazoline-7-carboxamide] are 6.11 µM, 6.85 µM, 430.36 1 × 10^−6 cm/sec, over 30 m and under 1 µg/mL.
On the same counts, the results for `O=C1CC(C(=O)NCCO)CC2=C1C(c1ccccc1Cl)N=C(Nc1nc3ccccc3o1)N2` (stereo not drawn) [Compound 279, 2-(benzo[d]oxazol-2-ylamino)-4-(2-chlorophenyl)-N-(2-hydroxyethyl)-5-oxo-1,4,5,6,7,8-hexahydroquinazoline-7-carboxamide] are 4.85 µM, 5.44 µM, <2 1 × 10^−6 cm/sec, over 30 m and 28.98 µg/mL.
For `COCCNC(=O)C1CC(=O)C2=C(C1)NC(Nc1nc3ccccc3o1)=NC2c1ccccc1Cl` (stereo not drawn) [Compound 280, 2-(benzo[d]oxazol-2-ylamino)-4-(2-chlorophenyl)-N-(2-methoxyethyl)-5-oxo-1,4,5,6,7,8-hexahydroquinazoline-7-carboxamide], the IC50 in series [1] and in series [5] was 4.85 µM throughout. Besides, the “Perm. (1 × 10^−6 cm/sec)” value in series [2] was 747.27 1 × 10^−6 cm/sec. In series [3], the “Metab. Stabil. (m)” value came out at 10.16 m. Further, in series [4], the “Sol.” value came to 4.23 µg/mL.
Turning to `O=C1CC(C(=O)Nc2nncs2)CC2=C1C(c1ccccc1Cl)N=C(Nc1nc3ccccc3o1)N2` (stereo not drawn) [Compound 281, 2-(benzo[d]oxazol-2-ylamino)-4-(2-chlorophenyl)-5-oxo-N-(1,3,4-thiadiazol-2-yl)-1,4,5,6,7,8-hexahydroquinazoline-7-carboxamide], the IC50 amounted to 6.85 µM in series [1] and 12.2 µM in series [5]. For the same compound, the “Perm. (1 × 10^−6 cm/sec)” value in series [2] is reported as <5 1 × 10^−6 cm/sec. Besides, the “Metab. Stabil. (m)” value in series [3] is listed as over 30 m. In addition, the “Sol.” value in series [4] worked out at 1.23 µg/mL.
As for `O=C1CC(C(=O)N2CCNCC2)CC2=C1C(c1ccccc1Cl)N=C(Nc1nc3ccccc3o1)N2` (stereo not drawn) [Compound 282, 2-(benzo[d]oxazol-2-ylamino)-4-(2-chlorophenyl)-7-(piperazine-1-carbonyl)-4,5,6,8-tetrahydroquinazolin-5(1H)-one], the IC50 in series [1] was determined as 6.85 µM; in series [5] it was 7.69 µM. Further, in series [2], the “Perm. (1 × 10^−6 cm/sec)” value was <4.7 1 × 10^−6 cm/sec. Further, in series [3], the “Metab. Stabil. (m)” value is 30 m. Further, the “Sol.” value in series [4] was 23.88 µg/mL.
On the same counts, the results for `O=C(O)CNC(=O)C1CC(=O)C2=C(C1)NC(Nc1nc3ccccc3o1)=NC2c1ccccc1Cl` (stereo not drawn) [Compound 283, (2-(benzo[d]oxazol-2-ylamino)-4-(2-chlorophenyl)-5-oxo-1,4,5,6,7,8-hexahydroquinazoline-7-carbonyl)glycine] are 3.43 µM, 4.85 µM, <1 1 × 10^−6 cm/sec, over 30 m and 58.23 µg/mL.
In the same order, the values of `CN(C)CCNC(=O)C1CC(=O)C2=C(C1)NC(Nc1nc3ccccc3o1)=NC2c1ccccc1Cl` (stereo not drawn) [Compound 284, 2-(benzo[d]oxazol-2-ylamino)-4-(2-chlorophenyl)-N-(2-(dimethylamino)ethyl)-5-oxo-1,4,5,6,7,8-hexahydroquinazoline-7-carboxamide] are 12.2 µM, 12.2 µM, <9.8 1 × 10^−6 cm/sec, over 30 m and 61.78 µg/mL.
`CC1=C(C(=O)Nc2cc(C(=O)O)ccn2)C(c2ccccc2Cl)N=C(Nc2nc3ccccc3o2)N1` (stereo not drawn) [R-enantiomer of Compound 194] returned an IC50 in series [6] (Tables 18-19 and text of Example 12) of 15 µM.
As for `CC1=C(C(=O)NCc2cnn(C)c2)[C@@H](c2ccc(C)cc2Cl)N=C(Nc2nc3cccc(N)c3o2)N1` [S-enantiomer of Compound 83], in series [6] (Tables 18-20 and text of Example 12), the IC50 is 0.029 µM.
